What all share (type): cell-based
One test has as its target T1, mCX3CR1 (Mus musculus, UniProt Q9Z0D9).
T1 construct: expressed in transfected cells; stably expresses a Ca2+ sensitive photo-protein
T1 sequence (Q9Z0D9 1-354): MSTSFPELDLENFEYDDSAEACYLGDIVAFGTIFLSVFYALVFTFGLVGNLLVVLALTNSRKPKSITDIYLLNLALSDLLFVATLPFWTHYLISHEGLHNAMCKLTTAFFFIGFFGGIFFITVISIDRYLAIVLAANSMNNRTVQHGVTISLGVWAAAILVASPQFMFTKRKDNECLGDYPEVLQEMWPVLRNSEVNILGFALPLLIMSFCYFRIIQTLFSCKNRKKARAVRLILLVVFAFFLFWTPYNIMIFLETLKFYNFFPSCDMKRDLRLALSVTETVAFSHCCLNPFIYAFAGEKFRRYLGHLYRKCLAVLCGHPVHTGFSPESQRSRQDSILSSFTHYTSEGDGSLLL
Description: Ga16 assay, CX3CR1 agonism, Ca2+ sensitive photo-protein readout (FLIPRTETRA). The conditions noted are these: mouse CX3CR1 cell line. The method, boiled down: (§1)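 Cells expressing human, mouse or rat CX3CR1 with a stably expressed Ca2+-sensitive photoprotein were loaded with 10 μM coelenterazine in tyrode buffer pH 7.4 for 3 h at room temperature. Agonist-mode luminescence kinetics were recorded for 90 s after compound injection on FLIPRTETRA. Dose-response runs were done in quadruplicate, with fractalkine as the reference agonist.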

The target in a further test is T2, rCX3CR1 (Rattus norvegicus, UniProt P35411).
T2 construct: expressed in transfected cells; stably expresses a Ca2+ sensitive photo-protein
T2 sequence (P35411 1-354): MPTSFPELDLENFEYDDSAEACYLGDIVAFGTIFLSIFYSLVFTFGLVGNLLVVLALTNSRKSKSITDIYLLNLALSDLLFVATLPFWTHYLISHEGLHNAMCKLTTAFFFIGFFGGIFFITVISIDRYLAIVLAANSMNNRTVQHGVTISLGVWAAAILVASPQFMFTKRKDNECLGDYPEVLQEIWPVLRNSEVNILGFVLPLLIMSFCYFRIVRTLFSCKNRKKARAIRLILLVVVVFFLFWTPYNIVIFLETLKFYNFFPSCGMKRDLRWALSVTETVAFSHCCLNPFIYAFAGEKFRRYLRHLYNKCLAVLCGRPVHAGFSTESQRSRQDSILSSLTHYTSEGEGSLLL
Described as above. The conditions noted are these: rat CX3CR1 cell line. The method in brief:
as §1

Test [1] deals with T3, hCX3CR1 (Homo sapiens, UniProt P49238).
T3 sequence (P49238 1-355): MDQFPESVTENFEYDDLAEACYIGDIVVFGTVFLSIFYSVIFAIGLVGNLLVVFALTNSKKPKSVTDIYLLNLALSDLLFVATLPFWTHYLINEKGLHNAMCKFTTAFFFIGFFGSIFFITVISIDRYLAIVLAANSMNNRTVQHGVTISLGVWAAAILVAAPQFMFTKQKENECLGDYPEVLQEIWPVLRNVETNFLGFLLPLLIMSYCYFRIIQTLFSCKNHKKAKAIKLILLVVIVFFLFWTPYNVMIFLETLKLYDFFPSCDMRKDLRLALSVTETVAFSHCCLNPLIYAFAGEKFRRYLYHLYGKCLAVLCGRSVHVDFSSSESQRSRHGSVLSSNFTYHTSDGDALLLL
The test is described as above. Set-up: expressed in transfected cells; stably expresses a Ca2+ sensitive photo-protein. The conditions noted are these: human CX3CR1 cell line. The method in brief:
as §1

Test [2] has as its target T3, hCX3CR1. Put plainly: ChAMPion assay (CHO ChAMPion/CX3CR1 K1.6, cAMP/CNG channel, photoprotein luminescence). The settings on record: ChAMPion assay, CHO ChAMPion/CX3CR1 K1.6, Forskolin 3 μM; read-out: hCX3CR1 agonism EC50. Also on record: expressed in transfected cells; stably expresses a Ca2+ sensitive photo-protein. The protocol: Buffers and reagents. PBS (D-PBS without calcium and magnesium; EuroClone); Trypsin (Trypsin 0.05%, EDTA 0.02% in PBS; EuroClone); DMSO (Sigma); Tyrode buffer Ca^2+ free: in-house solution (130 mM NaCl, 5 mM KCl, 1 mM MgCl^2, 5 mM NaHCO3, 20 mM HEPES (pH 7.4); sterile filtered and autoclaved); Tyrode buffer 10 mM Ca^2+: in-house solution (130 mM NaCl, 5 mM KCl, 10 mM CaCl2), 1 mM MgCl2, 5 mM NaHCO3, 20 mM HEPES, in water at pH 7.4, sterile filtered); Coelenterazine, native (Biosynth); stock 10 mM; Agonist: Recombinant Human Fractalkine (CX3CL1) (PeproTech); stock: 10 μM in standard Tyrode buffer/BSA 01%; stored at −20° C.
Cell line. The final clone for the hCX3CR1 assay was CHO ChAMPion/CX3CR1 K1.6. ChAMPion technology is based on the co-expression of a Ca^2+ sensitive photoprotein and of a cyclic nucleotide-gated (CNG) channel acting as a cAMP biosensor in a CHO-K1 cell line. CNG channels are non-selective ligand gated cation channels that can be opened by the direct interaction with either cAMP or cGMP, at the intracellular C-terminus site of the channel. Channel opening allows the flux of extracellular calcium into the cell cytoplasm and its transient elevation can be recorded by means of several different calcium indicators. In the chAMPion system, the CNG channel has been modified to display sensitivity to cAMP levels in the physiological range. In addition the calcium influx through the opened channel is immediately detected by the recording of the photoprotein-emitted flash type luminescence signal.
The chAMPion cell line system can monitor the activation of transfected Gαi-coupled receptors, which elicit changes in 3,‘5’-adenosine cyclic monophosphate (cAMP) levels, which in turn is responsible for CNG opening and consequent Ca^2+ influx.
Assay protocol. Experiments were performed in 384 MTP format. Cells were seeded at 10,000 cells/well in 25 μL/well complete growth medium without selection antibiotics in 384-well plates. Twenty-four hours later, cells were assayed for the response to various compounds using the Ca^2+ sensitive photo-protein stably expressed in the cells as readout.
The experiment was performed in a 384-well format according to the following procedure: • 24h after seeding, pre-incubate the cells at room temperature for 1 hour. • Then remove the culture medium. • Load cells with 20 μL/well of Ca^2+ free tyrode buffer+ceolenterazine 5 μM. • Incubate cell plates for 4 hours at RT. • 10 μl/well of 3× concentrated compounds in Ca^2+ free tyrode buffer+Forskolin 9 μM (final Forskolin concentration=3 μM) are applied to the cells (at 10 μl/s). Ten minutes later a second injection is performed: 10 μl/well of Ca^2+ free tyrode buffer+BSA 0.04% (final BSA concentration=0.01%). Twenty minutes later a third injection is performed: 20 μl/well of 10 mM Ca^2+ tyrode buffer (final Ca^2+ concentration was 3.3 mM) and luminescence is recorded for 90 seconds.
Data from FLIPRTETRA measurements are analyzed with the Genedata Screener© software.

Consider `CN(C)CC1(CNC(=O)c2cc3c(s2)CCCCCC3)Cc2ccccc2C1` [Example 10, N-[[2-[(dimethylamino)methyl]-1,3-dihydroinden-2-yl]methyl]-4,5,6,7,8,9-hexahydrocycloocta[b]thiophene-2-carboxamide], for which the EC50 (as a rule, the concentration needed to bring the measured effect to its halfway point) on mCX3CR1 was 19.4 µM; on rCX3CR1, 18.8 µM; at hCX3CR1 [1], 20.5 µM; at hCX3CR1 [2], 12.2 µM.
As to `CN(C)CC1(CNC(=O)c2cc3c(s2)CCCCCC3)CCOCC1` [Example 19, N-[[4-[(dimethylamino)methyl]oxan-4-yl]methyl]-4,5,6,7,8,9-hexahydrocycloocta[b]thiophene-2-carboxamide], the EC50 on mCX3CR1 is 30.6 µM; on rCX3CR1 it was 27.9 µM; on hCX3CR1 [1], 14.3 µM; at hCX3CR1 [2] it was 1.9 µM.
Regarding `CCCN(C)CC1(CNC(=O)c2cc3c(s2)CCCCCC3)CCCC1` [Example 6, N-[[1-[[methyl(propyl)amino]methyl]cyclopentyl]methyl]-4,5,6,7,8,9-hexahydrocycloocta[b]thiophene-2-carboxamide], the EC50 on mCX3CR1 came out at 18.1 µM; on rCX3CR1, 14.6 µM; at hCX3CR1 [1] it was 15.1 µM; on hCX3CR1 [2], 4.5 µM.
The matching figures for `O=C(NCC1(CN2CCCC2)Cc2ccccc2C1)c1cc2c(s1)CCCCCC2` [Example 11, N-[[2-(pyrrolidin-1-ylmethyl)-1,3-dihydroinden-2-yl]methyl]-4,5,6,7,8,9-hexahydrocycloocta[b]thiophene-2-carboxamide]: 15.4 µM, 19.6 µM, 20.5 µM and 6.3 µM.
The matching figures for `O=C(NCC1(CN2CCCC2)CCC1)c1cc2c(s1)CCCCCCC2` [Example 26, N-[[1-(pyrrolidin-1-ylmethyl)cyclobutyl]methyl]-5,6,7,8,9,10-hexahydro-4H-cyclonona[b]thiophene-2-carboxamide]: 58.1 µM, 46.7 µM, 27.3 µM and 4.3 µM.
The matching figures for `CN(C)CC1(CNC(=O)c2ccc3c(c2)CCCCCC3)CCCC1` [Example 33, N-[[1-[(dimethylamino)methyl]cyclopentyl]methyl]-5,6,7,8,9,10-hexahydrobenzo[8]annulene-3-carboxamide]: 44.4 µM, 22.7 µM, 17.4 µM and 4 µM.
For the compound `CN(CCO)CC1(CNC(=O)c2cc3c(s2)CCCCC3)CCCC1` [Example 34, N-[[1-[[2-hydroxyethyl(methyl)amino]methyl]cyclopentyl]methyl]-5,6,7,8-tetrahydro-4H-cyclohepta[b]thiophene-2-carboxamide], the EC50 at mCX3CR1 worked out at 46.9 µM; on rCX3CR1, 12.9 µM; at hCX3CR1 [1], 13.7 µM; on hCX3CR1 [2], 36.5 µM.
Take `CN(C)CC1(CNC(=O)c2cc3c(s2)CCCCCC3)CCCCC1` [Example 22, N-[[1-[(dimethylamino)methyl]cyclohexyl]methyl]-4,5,6,7,8,9-hexahydrocycloocta[b]thiophene-2-carboxamide]: the EC50 on mCX3CR1 amounted to 15.1 µM; at rCX3CR1 it was 13.7 µM; at hCX3CR1 [1] it was 11.5 µM; on hCX3CR1 [2], 1.3 µM.
The matching figures for `CCC(CC)(CNC(=O)c1cc2c(s1)CCCCCC2)CN(C)C` [Example 8, N-[2-[(dimethylamino)methyl]-2-ethylbutyl]-4,5,6,7,8,9-hexahydrocycloocta[b]thiophene-2-carboxamide]: 17.1 µM, 20 µM, 16.2 µM and 11.2 µM.
For `O=C(NCC1(CN2C[C@H]3CCO[C@@H]3C2)CCCC1)c1cc2c(s1)CCCCCC2` [Example 69, N-[[1-[[(3aR,6aS)-2,3,3a,4,6,6a-hexahydrofuro[2,3-c]pyrrol-5-yl]methyl]cyclopentyl]methyl]-4,5,6,7,8,9-hexahydrocycloocta[b]thiophene-2-carboxamide], the EC50 was 33.6 µM on mCX3CR1, 20.4 µM on rCX3CR1, 18 µM on hCX3CR1 [1] and 5.5 µM on hCX3CR1 [2].
As for `O=C(NCC1(CN2CCC2)CCCC1)c1cc2c(s1)CCCCCC2` [Example 14, N-[[1-(azetidin-1-ylmethyl)cyclopentyl]methyl]-4,5,6,7,8,9-hexahydrocycloocta[b]thiophene-2-carboxamide], the EC50 on mCX3CR1 was 15.2 µM; on rCX3CR1, 9.3 µM; on hCX3CR1 [1] it was 9.1 µM; on hCX3CR1 [2] it was 1.6 µM.
In the case of `O=C(NCC1(CN2CCCC2)CC1)c1cc2c(s1)CCCCCC2` [Example 4, N-[[1-(pyrrolidin-1-ylmethyl)cyclopropyl]methyl]-4,5,6,7,8,9-hexahydrocycloocta[b]thiophene-2-carboxamide], the EC50 at mCX3CR1 stood at 16.2 µM; on rCX3CR1, 15.4 µM; on hCX3CR1 [1], 14.6 µM; on hCX3CR1 [2], 2.8 µM.
The matching figures for `O=C(NCC1(CN2CCCC2)CCCCC1)c1cc2c(s1)CCCCCC2` [Example 18, N-[[1-(pyrrolidin-1-ylmethyl)cyclohexyl]methyl]-4,5,6,7,8,9-hexahydrocycloocta[b]thiophene-2-carboxamide]: 24.9 µM, 23.7 µM, 11 µM and 0.94 µM.
Consider `CC(CNC(=O)c1cc2c(s1)CCCCCC2)CN(C)C` (centres unmarked) [Example 3, N-[3-(dimethylamino)-2-methylpropyl]-4,5,6,7,8,9-hexahydrocycloocta[b]thiophene-2-carboxamide], for which the EC50 at mCX3CR1 came out at 75.1 µM; at rCX3CR1, 77.2 µM; at hCX3CR1 [1], 21 µM; at hCX3CR1 [2], 30 µM.

The values above are taken from patent US12258337B2, “Bicyclic CX3CR1 receptor agonists” (Board of Regents, The University of Texas System, priority 2019, dated 2025).
